Tests used:
[1] = system: almost 60 protein kinases; test: SelectScreen kinase profiling: all the other tested kinases of the panel; type: biochemical; details: 1 μM; all tested kinases other than PDK1 and mTOR
Protocol: (§1) Effect of the indicated compounds on the activity of various kinases was assessed by SelectScreen Kinase Profiling Service (Invitrogen-Life Technologies, Paisley, UK). Assays were performed using 1 μM of the tested compounds and ATP concentration as indicated in the corresponding tables. In the case of InsP5 a screen using 10 μM of the compound was also carried out, as indicated in the corresponding table.
None of the other polyphosphates had any significant effect (Table 1C). […] This is consistent with the detected inhibition of Thr308 phosphorylation in 2-O-Bn-InsP5-treated SKOV-3 and PC3 cells (Figure 1B and C) and 2-O-Bn-InsP5-treated mice (Figure 4D).

[2] = system: Akt phosphorylation at Ser473 and Thr308 in SKOV-3; test: Akt activation by western blot in SKOV-3; type: cell-based, human; details: SKOV-3, 8 h or 24 h, serum free medium
Protocol: (§2) Akt activation was assessed by monitoring phosphorylation at its residues Ser473 and Thr308. Membranes were then stripped and re-probed with the indicated antibodies.

[3] = system: Akt phosphorylation in PC3; test: Akt activation by western blot in PC3; type: cell-based, human; details: PC3, 24 h, medium containing 0.5% FBS
Protocol: as §2

[4] = system: Akt phosphorylation in ASPC1; test: Akt activation by western blot in ASPC1; type: cell-based, human; details: ASPC1, results not shown
SKBR3 [5] = test: Cell survival by cell counting, SKBR3; type: cell-based, human; details: SKBR3, 72 h
Protocol: (§3) Cells seeded in a 24-well plate were treated with the indicated compounds in serum free DMEM or DMEM containing 0.5% FBS (PC3). After 72 h, the number of surviving cells was assessed by manual cell counting or by using the cell counter CDA-500 (Sysmex, Milton Keynes, UK). Alternatively, after 48 h, the number of apoptotic cells was assessed by acridine orange/ethidium bromide assay as described ([Piccolo et al, 2004]; [Maffucci et al, 2005]). SRB test was carried out in SKOV-3 and PC3 seeded in 96-well plate (3800 cells per well or 5800 cells per well, respectively) after 72 h of treatment as described ([Cappella et al, 2001]).
(§4) The number of surviving cells was assessed by cell counting. Data are mean±s.e. of n=4 (A) and n=2 (B) independent experiments. ^**=P<0.05. […] The number of apoptotic cells was assessed by acridine orange/ethidium bromide assay. Data are mean±s.e. of three independent experiments. ^**=P<0.05.

SKOV-3 [6] = test: Cell survival by cell counting, SKOV-3; type: cell-based, human; details: SKOV-3, 72 h
Protocol: as §3, §4

BxPc-3 = test: Cell survival by cell counting, BxPc-3; type: cell-based, human; details: BxPc-3, 72 h
Protocol: as §3
(§5) The number of surviving cells was assessed by cell counting. Data are mean±s.e. of n=3 (A), n=6 (B), n=3 (C) and n=4 (D) independent experiments carried out in duplicate. ^*=P<0.01; ^**=P<0.05. […] After 72 h the number of surviving cells was assessed by SRB assay. Data are mean±s.e. of n=2 independent experiments.

ASPC1 = test: Cell survival by cell counting, ASPC1; type: cell-based, human; details: ASPC1, 72 h
Protocol: as §3, §5
(§6) Data are mean±s.e. of n=4 independent experiments carried out in duplicate. […] Data are mean±s.e. of n=5 independent experiments carried out in duplicate. […] In all cases (A–D), cells were treated for 72 h and the number of surviving cells was assessed by cell counting. […] In all cases (E, F), cells were treated for 72 h and the number of surviving cells was assessed by SRB assay and data are mean±s.e. of two experiments carried out in quadruplicate.

MDA-MB-468 = test: Cell survival by cell counting, MDA-MB-468; type: cell-based, human; details: MDA-MB-468, 72 h
Protocol: as §3, §5, §6

MCF7 = test: Cell survival by cell counting, MCF7; type: cell-based, human; details: MCF7, 72 h, 20 nM 4-OH Tamoxifen, 50 μM 2-O-Bn-InsP5 alone or in combination
Protocol: as §3
Data are mean±s.e. of n=4 independent experiments carried out in duplicate. […] Data are mean±s.e. of n=5 independent experiments carried out in duplicate. […] Data are mean±s.e. of n=6 independent experiments carried out in duplicate. […] Data are mean±s.e. of n=2 independent experiments carried out in duplicate. In all cases (A–D), cells were treated for 72 h and the number of surviving cells was assessed by cell counting. […] In all cases (E, F), cells were treated for 72 h and the number of surviving cells was assessed by SRB assay and data are mean±s.e. of two experiments carried out in quadruplicate.

SKBR3 [7] = test: Acridine orange/ethidium bromide apoptosis assay, SKBR3; type: cell-based, human
Protocol: as §3, §4

SKOV-3 [8] = test: Acridine orange/ethidium bromide apoptosis assay, SKOV-3; type: cell-based, human; details: SKOV-3, acridine orange/ethidium bromide assay
Protocol: as §3, §4

[9] = system: Akt phosphorylation at Ser473 and Thr308 in PC3 tumours; test: Akt phosphorylation in excised tumours (western blot); type: in vivo, nude athymic CD-1 nu/nu mice; details: single dose 50 mg kg^−1, tumours excised 24 h after treatment
Protocol: Animals were killed 24 h after treatment and tumour samples were collected and snap frozen. Frozen specimens of tumour tissue were homogenised with a Polytron homogeniser in a lysis buffer (ratio 1 : 1 w/v) containing 50 mM Tris-HCl (pH 7.4), 5 mM EDTA, 0.1% Nonidet NP-40, 250 mM NaCl, 50 mM NaF and proteases and phosphatase inhibitors. After centrifugation at 13 000 r.p.m. for 10 min at 4°C, 80 μg of protein was separated on SDS–PAGE and transferred to a polyvinylidene difluoride membrane (Millipore, MA, USA). Membranes were probed with the indicated antibodies.
The inositol compounds (12.5–25–50 mg kg^−1 day^−1) and vehicle (water) were given daily by intraperitoneal (i.p.) injections for 14 consecutive days (days 15–28). Tumour size was assessed twice weekly. (A, B) Tumour growth in 2-O-Bn-InsP5-treated mice (A) and InsP5-treated mice (B) compared with control group measured for the duration of the experiment. Results are expressed as mean±s.e. (C) Top: Table showing all P-values for the indicated doses of 2-O-Bn-InsP5 compared to controls at the indicated days of treatment (NS=not significant). […] The percentage of tumour weight inhibition (TWI%), the tumour growth delay (T−C) and the log cell kill (LCK) were calculated as described in the MATERIALS AND METHODS section. […] Phosphorylation of Akt at its residues Ser473 and Thr308 was assessed by using specific antibodies. […]

CAMK1 (CaMK1) = CAMK1 (CaMK1) (Homo sapiens, UniProt Q14012); test: SelectScreen kinase profiling: CAMK1; type: biochemical; details: 10 µM compound; [ATP] 100 µM
CAMK1 (CaMK1), sequence (Q14012 whole entry): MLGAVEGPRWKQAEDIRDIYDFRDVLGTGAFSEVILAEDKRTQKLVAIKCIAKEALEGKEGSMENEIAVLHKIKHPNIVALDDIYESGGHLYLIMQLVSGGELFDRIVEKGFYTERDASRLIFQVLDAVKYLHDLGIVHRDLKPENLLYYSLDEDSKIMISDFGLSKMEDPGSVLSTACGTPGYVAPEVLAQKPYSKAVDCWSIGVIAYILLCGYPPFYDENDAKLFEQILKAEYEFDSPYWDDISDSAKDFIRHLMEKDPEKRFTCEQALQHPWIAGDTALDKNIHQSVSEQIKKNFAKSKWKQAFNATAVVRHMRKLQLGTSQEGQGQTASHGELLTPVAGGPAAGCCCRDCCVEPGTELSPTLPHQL
Protocol: as §1, with “InsP5” left out

SMILES	percentage of inhibition of all the other tested kinases [1] [%]	Akt phosphorylation at residue Ser473 [2]	Akt phosphorylation at residue Thr308 [2]	Akt phosphorylation [3]	Akt phosphorylation [4]	number of surviving cells (SKBR3 [5])	number of surviving cells (SKOV-3 [6])	number of surviving cells (BxPc-3)	number of surviving cells (ASPC1)	number of surviving cells (MDA-MB-468)	number of surviving cells (MCF7)	percentage of apoptotic cells (SKBR3 [7])	percentage of apoptotic cells (SKOV-3 [8])	Akt phosphorylation at residue Ser473 in tumours [9]	Akt phosphorylation at residue Thr308 in tumours [9]	inhibition at 10 µM (CAMK1 (CaMK1)) [%]
O=P(O)(O)OC1C(OCc2ccccc2)C(OP(=O)(O)O)C(OP(=O)(O)O)C(OP(=O)(O)O)C1OP(=O)(O)O (stereo not shown) [2-O-Bn-InsP5, 2-O-benzyl-myo-inositol 1,3,4,5,6-pentakisphosphate]	< 40	inhibited Akt phosphorylation at its residue Ser473 more efficiently than InsP5 in SKOV-3, being already active after 8 h of treatment and at a concentration of 20 μM	Inhibition of Akt phosphorylation at residue Thr308 was also detected	able to block Akt phosphorylation	able to block Akt phosphorylation	strongly reduced the number of surviving	strongly reduced the number of surviving	more potent than InsP5 at a concentration of 50 μM	more active than InsP5 at almost all concentrations tested	stronger activity of 2-O-Bn-InsP5 compared with InsP5	little effect	percentage of apoptotic cells was higher in 2-O-Bn-InsP5-treated compared with InsP5-treated	percentage of apoptotic cells was higher in 2-O-Bn-InsP5-treated compared with InsP5-treated	markedly reduced Akt phosphorylation at its residue Ser473 in all 2-O-Bn-InsP5-treated mice	clear inhibition of Akt phosphorylation at its residue Thr308 was detected in five out of seven	
O=P(O)(O)OC1C(O)C(OP(=O)(O)O)C(OP(=O)(O)O)C(OP(=O)(O)O)C1OP(=O)(O)O (stereo not shown) [InsP5, inositol 1,3,4,5,6-pentakisphosphate]																-46

Reference: paper PMC2813745, “A novel inhibitor of the PI3K/Akt pathway based on the structure of inositol 1,3,4,5,6-pentakisphosphate” (British Journal of Cancer, 2010)
